Reference: US20230339916A1, “PLANT GROWTH REGULATOR COMPOUNDS” (SYNGENTA CROP PROTECTION AG, priority 2020, published 2023)

test system: Corn leaf discs (variety Multitop); experiment: Dark induced senescence of corn leaf; assay type: in vivo; settings: Zea mays, foliar, 192 h; corn leaf discs in the dark, 23° C., 75% humidity, 8 days; 100 μM-0.0001 μM, 0.5% DMSO; image analysis; read-out: IC50 (concentration at which 50% senescence was achieved)
Experimental: Corn plants of variety Multitop were grown in a greenhouse with relative 75% humidity and at 23-25° C. for 6 weeks. 1.4 cm diameter leaf discs were placed into 24-well plates containing test compounds in a concentration gradient (100 μM-0.0001 μM) at a final concentration of 0.5% DMSO. Each concentration was tested in 12 replicates. Plates were sealed with seal foil. The foil was pierced to provide gas exchange in each well. The plates were placed into the completely dark climatic chamber. Plates were incubated in the chamber with 75% humidity and at 23° C. for 8 days. On days 0, 5, 6, 7 and 8 photographs were taken of each plate, and image analysis conducted with a macro developed using the ImageJ software. The image analysis was used to determine the concentration at which 50% senescence was achieved (IC50), see Table 3. The lower the value, the higher senescence induction potency.

IC50, < 3000 nM:
CCOC(=O)/C(=C/OC1C=C(C)C(=O)O1)N1C(=O)CSc2ccccc21 (stereo not shown) [Compound I-78-Z, ethyl (Z)-3-[(4-methyl-5-oxo-2H-furan-2-yl)oxy]-2-(3-oxo-1,4-benzothiazin-4-yl)prop-2-enoate]
CCOC(=O)/C(=C/OC1C=C(C)C(=O)O1)n1c(=O)sc2ccccc21 (stereo not shown) [Compound I-64-Z, ethyl (Z)-3-[(4-methyl-5-oxo-2H-furan-2-yl)oxy]-2-(2-oxo-1,3-benzothiazol-3-yl)prop-2-enoate]
CC1=C(C)C(O/C=C(\C#N)n2ncc3ccccc32)OC1=O (stereo not shown) [Compound I-47-E, (E)-3-[(3,4-dimethyl-5-oxo-2H-furan-2-yl)oxy]-2-indazol-1-yl-prop-2-enenitrile]
CCOC(=O)/C(=C/OC1C=C(C)C(=O)O1)N1CCc2ccccc21 (stereo not shown) [Compound I-70-Z, ethyl (Z)-2-indolin-1-yl-3-[(4-methyl-5-oxo-2H-furan-2-yl)oxy]prop-2-enoate]
CCOC(=O)/C(=C/OC1C=C(C)C(=O)O1)N1C(=O)C2(CC2)c2ccccc21 (stereo not shown) [Compound I-66-Z, ethyl (Z)-3-[(4-methyl-5-oxo-2H-furan-2-yl)oxy]-2-(2′-oxospiro[cyclopropane-1,3′-indoline]-1′-yl)prop-2-enoate]
CCOC(=O)/C(=C/OC1OC(=O)C(C)=C1C)n1ccc2cc(-c3ccccc3)ccc21 (stereo not shown) [Compound I-11-Z, ethyl (Z)-3-[(3,4-dimethyl-5-oxo-2H-furan-2-yl)oxy]-2-(5-phenylindol-1-yl)prop-2-enoate]
CCOC(=O)/C(=C/OC1OC(=O)C(C)=C1C)n1nc(F)c2ccccc21 (stereo not shown) [Compound I-51-Z, ethyl (Z)-3-[(3,4-dimethyl-5-oxo-2H-furan-2-yl)oxy]-2-(3-fluoroindazol-1-yl)prop-2-enoate]
CCOC(=O)/C(=C/OC1OC(=O)C(C)=C1C)N1C(=O)C2(CC2)c2ccccc21 (stereo not shown) [Compound I-67-Z, ethyl (Z)-3-[(3,4-dimethyl-5-oxo-2H-furan-2-yl)oxy]-2-(2′-oxospiro[cyclopropane-1,3′-indoline]-1′-yl)prop-2-enoate]
CCOC(=O)/C(=C/OC1C=C(C)C(=O)O1)n1ccc2cc(F)ccc21 (stereo not shown) [Compound I-3-Z, ethyl (Z)-2-(5-fluoroindol-1-yl)-3-[(4-methyl-5-oxo-2H-furan-2-yl)oxy]prop-2-enoate]
CCOC(=O)/C(=C/OC1C=C(C)C(=O)O1)n1c(=O)oc2ccccc21 (stereo not shown) [Compound I-68-Z, ethyl (Z)-3-[(4-methyl-5-oxo-2H-furan-2-yl)oxy]-2-(2-oxo-1,3-benzoxazol-3-yl)prop-2-enoate]
CCOC(=O)/C(=C/OC1OC(=O)C(C)=C1C)n1ccc2cc(C(F)(F)F)ccc21 (stereo not shown) [Compound I-8-Z, ethyl (Z)-3-[(3,4-dimethyl-5-oxo-2H-furan-2-yl)oxy]-2-[5-(trifluoromethyl)indol-1-yl]prop-2-enoate]
CCOC(=O)/C(=C/OC1C=C(C)C(=O)O1)n1ccc2cncnc21 (stereo not shown) [Compound I-62-Z, ethyl (Z)-3-[(4-methyl-5-oxo-2H-furan-2-yl)oxy]-2-pyrrolo[2,3-d]pyrimidin-7-yl-prop-2-enoate]
CCOC(=O)/C(=C/OC1C=C(C)C(=O)O1)n1cc(C#N)c2ccccc21 (stereo not shown) [Compound I-25-Z, ethyl (Z)-2-(3-cyanoindol-1-yl)-3-[(4-methyl-5-oxo-2H-furan-2-yl)oxy]prop-2-enoate]
CC1=CC(O/C=C(/C(=O)N(C)C)n2cc(C#N)c3ccccc32)OC1=O (stereo not shown) [Compound I-86-Z, (Z)-2-(3-cyanoindol-1-yl)-N,N-dimethyl-3-[(4-methyl-5-oxo-2H-furan-2-yl)oxy]prop-2-enamide]
CNC(=O)/C(=C\OC1C=C(C)C(=O)O1)n1nnc2ccccc21 (stereo not shown) [Compound I-33-E, (E)-2-(benzotriazol-1-yl)-N-methyl-3-[(4-methyl-5-oxo-2H-furan-2-yl)oxy]prop-2-enamide]
CCOC(=O)/C(=C/OC1OC(=O)C(C)=C1C)n1ncc2ccccc21 (stereo not shown) [Compound I-46-Z, ethyl (Z)-3-[(3,4-dimethyl-5-oxo-2H-furan-2-yl)oxy]-2-indazol-1-yl-prop-2-enoate]
CCOC(=O)/C(=C/OC1C=C(C)C(=O)O1)n1nnc2ccccc21 (stereo not shown) [Compound I-31-Z, ethyl (Z)-2-(benzotriazol-1-yl)-3-[(4-methyl-5-oxo-2H-furan-2-yl)oxy]prop-2-enoate]
CCOC(=O)/C(=C/OC1OC(=O)C(C)=C1C)n1nnc2ccccc21 (stereo not shown) [Compound I-35-Z, ethyl (Z)-2-(benzotriazol-1-yl)-3-[(3,4-dimethyl-5-oxo-2H-furan-2-yl)oxy]prop-2-enoate]
CC1=CC(O/C=C(/C(=O)N(C)C)n2nnc3ccccc32)OC1=O (stereo not shown) [Compound I-34-Z, (Z)-2-(benzotriazol-1-yl)-N,N-dimethyl-3-[(4-methyl-5-oxo-2H-furan-2-yl)oxy]prop-2-enamide]
CCOC(=O)/C(=C/OC1OC(=O)C(C)=C1C)n1ccc2ccccc21 (stereo not shown) [Compound I-7-Z, ethyl (Z)-3-[(3,4-dimethyl-5-oxo-2H-furan-2-yl)oxy]-2-indol-1-yl-prop-2-enoate]
CC1=C(C)C(O/C=C(/C#N)n2ncc3ccccc32)OC1=O (stereo not shown) [Compound I-47-Z, (Z)-3-[(3,4-dimethyl-5-oxo-2H-furan-2-yl)oxy]-2-indazol-1-yl-prop-2-enenitrile]
CC1=CC(O/C=C(/C#N)n2ncc3ccccc32)OC1=O (stereo not shown) [Compound I-43-Z, (Z)-2-indazol-1-yl-3-[(4-methyl-5-oxo-2H-furan-2-yl)oxy]prop-2-enenitrile]
CCOC(=O)/C(=C/OC1OC(=O)C(C)=C1C)n1cc(C#N)c2ccccc21 (stereo not shown) [Compound I-26-Z, ethyl (Z)-2-(3-cyanoindol-1-yl)-3-[(3,4-dimethyl-5-oxo-2H-furan-2-yl)oxy]prop-2-enoate]
CCOC(=O)/C(=C/OC1C=C(C)C(=O)O1)n1ccc2cc(-c3ccccc3)ccc21 (stereo not shown) [Compound I-5-Z, ethyl (Z)-3-[(4-methyl-5-oxo-2H-furan-2-yl)oxy]-2-(5-phenylindol-1-yl)prop-2-enoate]
CNC(=O)/C(=C/OC1C=C(C)C(=O)O1)n1cc(C#N)c2ccccc21 (stereo not shown) [Compound I-82-Z, (Z)-2-(3-cyanoindol-1-yl)-N-methyl-3-[(4-methyl-5-oxo-2H-furan-2-yl)oxy]prop-2-enamide]
CCOC(=O)/C(=C/OC1C=C(C)C(=O)O1)n1nc(F)c2ccccc21 (stereo not shown) [Compound I-50-Z, ethyl (Z)-2-(3-fluoroindazol-1-yl)-3-[(4-methyl-5-oxo-2H-furan-2-yl)oxy]prop-2-enoate]
CCOC(=O)/C(=C/OC1OC(=O)C(C)=C1OC)n1cc(C#N)c2ccccc21 (stereo not shown) [Compound I-88-Z, ethyl (Z)-2-(3-cyanoindol-1-yl)-3-[(3-methoxy-4-methyl-5-oxo-2H-furan-2-yl)oxy]prop-2-enoate]
CCOC(=O)/C(=C/OC1C=C(C)C(=O)O1)n1nc(C)c(C)c1C (stereo not shown) [Compound I-80-Z, ethyl (Z)-3-[(4-methyl-5-oxo-2H-furan-2-yl)oxy]-2-(3,4,5-trimethylpyrazol-1-yl)prop-2-enoate]
CCOC(=O)/C(=C/OC1OC(=O)C(C)=C1C)N1C(=O)CSc2ccccc21 (stereo not shown) [Compound I-79-Z, ethyl (Z)-3-[(3,4-dimethyl-5-oxo-2H-furan-2-yl)oxy]-2-(3-oxo-1,4-benzothiazin-4-yl)prop-2-enoate]
CCOC(=O)/C(=C/OC1C=C(C)C(=O)O1)n1cnc2ccccc21 (stereo not shown) [Compound I-56-Z, ethyl (Z)-2-(benzimidazol-1-yl)-3-[(4-methyl-5-oxo-2H-furan-2-yl)oxy]prop-2-enoate]
CNC(=O)/C(=C/OC1OC(=O)C(C)=C1C)n1cc(C#N)c2ccccc21 (stereo not shown) [Compound I-83-Z, (Z)-2-(3-cyanoindol-1-yl)-3-[(3,4-dimethyl-5-oxo-2H-furan-2-yl)oxy]-N-methyl-prop-2-enamide]
CCOC(=O)/C(=C/OC1OC(=O)C(C)=C1C)n1cnc2ccccc21 (stereo not shown) [Compound I-57-Z, ethyl (Z)-2-(benzimidazol-1-yl)-3-[(3,4-dimethyl-5-oxo-2H-furan-2-yl)oxy]prop-2-enoate]
CCOC(=O)/C(=C/OC1OC(=O)C(C)=C1C)n1c(=O)oc2ccccc21 (stereo not shown) [Compound I-69-Z, ethyl (Z)-3-[(3,4-dimethyl-5-oxo-2H-furan-2-yl)oxy]-2-(2-oxo-1,3-benzoxazol-3-yl)prop-2-enoate]
CNC(=O)/C(=C/OC1OC(=O)C(C)=C1C)n1nnc2ccccc21 (stereo not shown) [Compound I-37-Z, (Z)-2-(benzotriazol-1-yl)-3-[(3,4-dimethyl-5-oxo-2H-furan-2-yl)oxy]-N-methyl-prop-2-enamide]
